In ChEMBL document CHEMBL1147562, “Synthesis of potent and highly selective nonguanidine azetidinone inhibitors of human tryptase” (Bioorg Med Chem Lett, 2004):

Assays:
Tryptase = Tryptase (Homo sapiens, UniProt Q9BZJ3+Q15661+Q9NRR2); test: Inhibitory activity of compound against human tryptase was determined; type: protein assay
[1] = Half-life of compound was determined at pH 9; type: ADME
[2] = Half-life of compound was determined at pH 7; type: ADME
Plasminogen = Plasminogen (Rattus norvegicus, UniProt Q01177); test: Inhibitory activity of compound against Plasmin was determined
Sequence of Plasminogen (Q01177 97-581 limits assumed): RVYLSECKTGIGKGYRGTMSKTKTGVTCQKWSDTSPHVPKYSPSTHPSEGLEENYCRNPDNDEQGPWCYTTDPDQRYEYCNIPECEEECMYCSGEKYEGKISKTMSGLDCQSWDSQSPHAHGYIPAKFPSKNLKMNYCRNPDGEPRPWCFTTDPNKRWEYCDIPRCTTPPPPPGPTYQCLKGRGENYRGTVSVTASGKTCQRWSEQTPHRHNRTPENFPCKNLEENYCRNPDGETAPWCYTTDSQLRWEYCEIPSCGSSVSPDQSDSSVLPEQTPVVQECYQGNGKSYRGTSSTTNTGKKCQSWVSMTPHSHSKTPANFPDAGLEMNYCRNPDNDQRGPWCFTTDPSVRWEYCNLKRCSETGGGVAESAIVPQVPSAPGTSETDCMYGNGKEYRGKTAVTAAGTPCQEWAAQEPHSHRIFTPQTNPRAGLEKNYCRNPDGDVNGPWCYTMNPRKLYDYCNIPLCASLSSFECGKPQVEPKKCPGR
Sequence of Plasminogen (Q01177 582-812 limits assumed): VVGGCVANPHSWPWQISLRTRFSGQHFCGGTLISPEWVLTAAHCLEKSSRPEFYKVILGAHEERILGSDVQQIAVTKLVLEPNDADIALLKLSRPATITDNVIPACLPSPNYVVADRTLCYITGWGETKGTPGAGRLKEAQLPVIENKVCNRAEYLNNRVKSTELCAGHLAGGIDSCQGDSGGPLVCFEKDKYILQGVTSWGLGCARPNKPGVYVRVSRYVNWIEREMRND

Coagulation factor X = Coagulation factor X (Homo sapiens, UniProt P00742); test: Inhibitory activity of compound against Coagulation factor X was determined
Sequence of Coagulation factor X (P00742 41-179 limits assumed): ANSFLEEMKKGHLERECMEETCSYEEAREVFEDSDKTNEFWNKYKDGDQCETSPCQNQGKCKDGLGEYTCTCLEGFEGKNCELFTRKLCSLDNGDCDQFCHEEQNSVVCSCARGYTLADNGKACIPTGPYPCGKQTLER
Sequence of Coagulation factor X (P00742 235-488 limits assumed): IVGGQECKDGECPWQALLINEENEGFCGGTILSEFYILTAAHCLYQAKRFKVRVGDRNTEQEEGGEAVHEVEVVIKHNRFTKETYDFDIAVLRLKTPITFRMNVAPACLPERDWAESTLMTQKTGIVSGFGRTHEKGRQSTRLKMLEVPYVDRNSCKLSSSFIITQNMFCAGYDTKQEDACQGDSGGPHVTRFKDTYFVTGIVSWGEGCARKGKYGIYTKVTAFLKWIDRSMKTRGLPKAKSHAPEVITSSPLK

[3] = target: Urokinase-type plasminogen activator (Homo sapiens, UniProt P00749); test: Inhibitory activity of compound against Urokinase-type plasminogen activator was determined
Prothrombin = Prothrombin (Homo sapiens, UniProt P00734); test: Inhibitory activity of compound against Thrombin was determined
Serine protease 1 = Serine protease 1 (Homo sapiens, UniProt P07477); test: Inhibitory activity of compound against Trypsin was determined
Sequence of Serine protease 1 (P07477 whole entry): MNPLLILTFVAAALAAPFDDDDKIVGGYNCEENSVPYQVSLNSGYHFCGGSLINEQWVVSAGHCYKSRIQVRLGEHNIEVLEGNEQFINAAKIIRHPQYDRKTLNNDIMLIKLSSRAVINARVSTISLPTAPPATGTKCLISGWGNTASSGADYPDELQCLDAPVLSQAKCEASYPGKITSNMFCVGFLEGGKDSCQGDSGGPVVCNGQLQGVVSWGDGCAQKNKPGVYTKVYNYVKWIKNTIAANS

[4] = target: Tissue-type plasminogen activator (Homo sapiens, UniProt P00750); test: Inhibitory activity of compound against tissue type plasminogen activator was determined
Sequence of Tissue-type plasminogen activator (P00750 whole entry): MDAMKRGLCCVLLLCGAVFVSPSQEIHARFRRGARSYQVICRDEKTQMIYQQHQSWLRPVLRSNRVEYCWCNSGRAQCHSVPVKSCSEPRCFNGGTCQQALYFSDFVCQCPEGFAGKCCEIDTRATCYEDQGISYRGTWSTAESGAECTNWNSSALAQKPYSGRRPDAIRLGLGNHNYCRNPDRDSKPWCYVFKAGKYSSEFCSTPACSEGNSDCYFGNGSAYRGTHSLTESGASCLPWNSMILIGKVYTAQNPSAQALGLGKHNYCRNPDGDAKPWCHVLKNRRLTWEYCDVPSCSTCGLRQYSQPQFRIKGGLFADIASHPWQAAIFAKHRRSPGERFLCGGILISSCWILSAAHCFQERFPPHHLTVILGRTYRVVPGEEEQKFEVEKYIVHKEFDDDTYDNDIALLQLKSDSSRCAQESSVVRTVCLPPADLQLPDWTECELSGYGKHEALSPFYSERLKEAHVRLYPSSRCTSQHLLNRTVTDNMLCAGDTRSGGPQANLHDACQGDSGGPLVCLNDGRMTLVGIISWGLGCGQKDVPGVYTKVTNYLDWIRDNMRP

| IC50 (Tryptase) [nM] | SMILES | other results |
| --- | --- | --- |
| 34 | CC(C)C(OC(=O)N1CCN(C(=O)N2C(=O)[C@H](CCCCCN)[C@H]2C(=O)O)CC1)C(C)C | – |
| 1053 | CC(C)C(OC(=O)N1CCN(C(=O)N2C(=O)[C@H](Cc3ccc(N)nc3)[C@H]2C(=O)O)CC1)C(C)C | – |
| 7 | CC(C)C(OC(=O)N1CCN(C(=O)N2C(=O)[C@H](CCCCN)[C@H]2C(=O)O)CC1)C(C)C | – |
| < 1.7 | N=C(N)N1CCC[C@@H](C[C@H]2C(=O)N(C(=O)N3CCN(C(=O)CCCCCc4ccccc4)CC3)[C@@H]2C(=O)O)C1 | – |
| 39 | CC(C)C(OC(=O)N1CCN(C(=O)N2C(=O)[C@H](CCCCN=C(N)N)[C@H]2C(=O)O)CC1)C(C)C (single isomer, unassigned) | – |
| 515 | N=C(N)N1CCC(C[C@H]2C(=O)N(C(=O)Nc3ccccc3)[C@@H]2C(=O)O)CC1 | – |
| 2605 | CC(C)C(OC(=O)N1CCN(C(=O)N2C(=O)[C@H](CC3CCNC3)[C@H]2C(=O)O)CC1)C(C)C (stereo not given in full) | – |
| < 1.7 | N=C(N)N1CCC[C@H](C[C@H]2C(=O)N(C(=O)N3CCN(C(=O)CCCCCc4ccccc4)CC3)[C@@H]2C(=O)O)C1 | – |
| 17899 | CC(C)C(OC(=O)N1CCN(C(=O)N2C(=O)[C@H](CC3CCCNC3)[C@H]2C(=O)O)CC1)C(C)C (stereo not given in full) | – |
| 211 | CC(C)C(OC(=O)N1CCN(C(=O)N2C(=O)[C@H](Cc3ccc(CN)cc3)[C@H]2C(=O)O)CC1)C(C)C | – |
| 32 | CC(C)C(OC(=O)N1CCN(C(=O)N2C(=O)[C@H](CCCCCCN)[C@H]2C(=O)O)CC1)C(C)C | – |

The next lines start with the compound.

| SMILES | IC50 (Tryptase) [nM] | other results |
| --- | --- | --- |
| Nc1ccccn1 [2-AMINOPYRIDINE] | – | pKa (physchem): 7 |
| CC(C)C(OC(=O)N1CCN(C(=O)N2C(=O)[C@H](CCCN)[C@H]2C(=O)O)CC1)C(C)C | > 33000 | – |
| O=C(O)[C@@H]1[C@@H](CC2CCNCC2)C(=O)N1C(=O)N1CCN(C(=O)CCCCCc2ccccc2)CC1 | 1 | half-life [1]: 35 h; half-life [2]: > 48 h |
| CC(C)C(OC(=O)N1CCN(C(=O)N2C(=O)[C@H](CCC3CCNCC3)[C@H]2C(=O)O)CC1)C(C)C | 1214 | – |
| CC(C)C(OC(=O)N1CCN(C(=O)N2C(=O)[C@H](Cc3ccnc(N)c3)[C@H]2C(=O)O)CC1)C(C)C | 61 | – |
| NCCCC[C@H]1C(=O)N(C(=O)N2CCN(C(=O)CCCCCc3ccccc3)CC2)[C@@H]1C(=O)O | < 1.7 | – |
| O=C(O)[C@@H]1[C@@H](CC2CCNCC2)C(=O)N1C(=O)Nc1ccccc1 | 147 | – |
| CC(C)C(OC(=O)N1CCN(C(=O)N2C(=O)[C@H](CC3CCNCC3)[C@H]2C(=O)O)CC1)C(C)C | 29 | IC50 (Plasminogen): 6220 nM; IC50 (Coagulation factor X): > 33000 nM; IC50 [3]: 7000 nM; IC50 (Prothrombin): > 33000 nM; IC50 (Serine protease 1): 935 nM; IC50 [4]: > 33000 nM |
| CC(C)C(OC(=O)N1CCN(C(=O)N2C(=O)[C@H](Cc3cccc(CN)c3)[C@H]2C(=O)O)CC1)C(C)C | 19 | – |
| O=C(O)[C@@H]1[C@@H](CCC2CCCNC2)C(=O)N1C(=O)N1CCN(C(=O)CCCCCc2ccccc2)CC1 (stereo not given in full) | 1.8 | IC50 (Plasminogen): 309 nM; IC50 (Coagulation factor X): > 33000 nM; IC50 [3]: > 33000 nM; IC50 (Prothrombin): > 33000 nM; IC50 (Serine protease 1): 10000 nM; IC50 [4]: > 33000 nM |
